# Assay results as given in US20250144067A1, “PERSONALIZED STARVATION THERAPY FOR CANCER” (Faeth Therapeutics, Inc., priority 2021, published 2025).
# Structures can show the parent of a compound that is named as a salt.
# Assays:
# [1] = system: NCI-H292 lung cancer cells; assay: FDA drug screening, complete media vs cholesterol-free media without statin (TABLE 1); format: cell-based, human
# [2] = system: NCI-H292 lung cancer cells; assay: FDA drug screening, complete media vs cholesterol-free media with simvastatin (TABLE 2); format: cell-based, human; details: for Cholesterol-free media + simvastatin (0.04 μM) / Complete Media: NCI-H292 cells
# [3] = Complete minus Cholesterol-free, […]
# [4] = NCI-H292 cells, cholesterol-free media without statin
# [5] = cholesterol-free media with simvastatin 0.04 μM, FDA drug library screen (TABLE 2)
# [6] = complete media, FDA drug library screen (TABLE 2)
# [7] = complete media minus cholesterol-free media + simvastatin (0.04 μM), […]
# [8] = Complete minus Cholesterol-free, greater than 0 enhanced anti-cancer activity, about 0 neutral, below 0 antagonist
# [9] = NCI-H292 cells, FDA drug library screen, cholesterol-free media without statin
# [10] = NCI-H292 cells, FDA drug library screen, complete media
# [11] = cholesterol-free media with simvastatin 0.04 μM, cell growth value in FDA drug screen
# [12] = complete media, cell growth value in FDA drug screen
# [13] = complete media minus cholesterol-free media + simvastatin, >0 enhanced anti-cancer activity, about 0 neutral, <0 antagonist
# [14] = FDA drug library screen, cholesterol-free media with simvastatin 0.04 μM
# [15] = FDA drug library screen, complete media
# [16] = NCI-H292 cells in cholesterol-free media without statin
# [17] = NCI-H292 cells in complete media
# [18] = FDA library drug in cholesterol-free media with simvastatin 0.04 μM
# [19] = FDA library drug in complete media
# [20] = complete media vs cholesterol-free media + simvastatin (0.04 μM), […]
# [21] = NCI-H292 cells, cholesterol-free media without statin, FDA drug library screen
# [22] = NCI-H292 cells, complete media, FDA drug library screen
# [23] = drug in cholesterol-free media with simvastatin 0.04 μM
# [24] = complete media minus cholesterol-free media + simvastatin, […]
# [25] = Complete minus Cholesterol-free, >0 enhanced anti-cancer activity, about 0 neutral, <0 antagonist
# [26] = complete media minus cholesterol-free media + simvastatin (0.04 μM), >0 enhanced anti-cancer activity, about 0 neutral, <0 antagonist
# [27] = complete media vs cholesterol-free media + simvastatin (0.04 μM), >0 enhanced anti-cancer activity, about 0 neutral, <0 antagonist
# [28] = complete vs cholesterol-free media, >0 enhanced anti-cancer activity, about 0 neutral, <0 antagonist
# [29] = Complete minus Cholesterol-free, greater than 0 enhanced anti-cancer activity, about 0 neutral, below 0 antagonists
compound,measurement,setting,value
Aprotinin,Difference,[1]; [3],−0.21
same,Cholesterol-free,[1]; [4],0.7012
same,Complete,"[1]; NCI-H292 cells, complete media",0.4863
same,Cholesterol-free media + simvastatin (0.04 μM),[2]; [5],0.8532
same,Complete Media,[2]; [6],0.8102
same,Difference,[2]; [7],−0.04
CCCN1CC(NS(=O)(=O)N(CC)CC)CC2Cc3c(O)cccc3CC21 (stereo not drawn) [Quinagolide (hydrochloride)],Difference,[1]; [8],−0.15
same,Cholesterol-free,[1]; [9],1.129
same,Complete,[1]; [10],0.9753
same,Cholesterol-free media + simvastatin (0.04 μM),[2]; [11],0.9283
same,Complete Media,[2]; [12],1.019
same,Difference,[2]; [13],0.09
O=C(CCCN1CCC(O)(c2ccc(Br)cc2)CC1)c1ccc(F)cc1 [Bromperidol],Difference,[1]; [8],−0.13
same,Cholesterol-free,[1]; [9],1.177
same,Complete,[1]; [10],1.05
same,Cholesterol-free media + simvastatin (0.04 μM),[2]; [14],0.4758
same,Complete Media,[2]; [15],1.318
same,Difference,[2]; [13],0.84
Cc1ccc([C@@H]2O[C@H](CO)[C@@H](O)[C@H](O)[C@H]2O)cc1Cc1ccc(-c2ccc(F)cc2)s1.O [Canagliflozin (hemihydrate)],Difference,[1]; [3],−0.51
same,Cholesterol-free,[1]; [16],1.347
same,Complete,[1]; [17],0.8359
same,Cholesterol-free media + simvastatin (0.04 μM),[2]; [18],1.34
same,Complete Media,[2]; [19],0.8924
same,Difference,[2]; [20],−0.45
NC12CC3CC(CC(C3)C1)C2 [Amantadine (hydrochloride)],Cholesterol-free,[1]; [21],0.9565
same,Complete,[1]; [22],1.419
same,Difference,"[1]; complete vs cholesterol-free media, […]",0.46
same,Cholesterol-free media + simvastatin (0.04 μM),[2]; [23],1.14
same,Complete Media,[2]; drug in complete media,0.9614
same,Difference,[2]; [20],−0.18
Alarelin (Acetate),Difference,[1]; [3],−0.71
same,Cholesterol-free,[1]; [16],2.133
same,Complete,[1]; [17],1.426
same,Cholesterol-free media + simvastatin (0.04 μM),[2]; [5],0.8515
same,Complete Media,[2]; [6],0.85
same,Difference,[2]; [7],0.00
Medroxyprogesterone,Difference,[1]; [3],−0.03
same,Complete,[1]; [22],0.9783
same,Cholesterol-free media + simvastatin (0.04 μM),[2]; [14],0.8858
same,Complete Media,[2]; [15],1.173
same,Difference,[2]; [24],0.29
Cc1cnc(C(=O)N[C@H]2CCCCC/C=C\[C@@H]3C[C@@]3(C(=O)NS(=O)(=O)C3CC3)NC(=O)[C@@H]3C[C@@H](Oc4nc5ccccc5c5ccccc45)CN3C2=O)cn1 [Paritaprevir],Difference,[1]; [25],−0.03
same,Cholesterol-free,[1]; [21],0.9471
same,Complete,[1]; [22],0.9198
same,Cholesterol-free media + simvastatin (0.04 μM),[2]; [5],1.147
same,Complete Media,[2]; [6],1.102
same,Difference,[2]; [26],−0.05
Terbutaline (sulfate),Difference,[1]; [25],−0.29
same,Cholesterol-free,[1]; [4],1.263
same,Complete,"[1]; NCI-H292 cells, complete media",0.9738
same,Cholesterol-free media + simvastatin (0.04 μM),[2]; [14],1.189
same,Difference,[2]; [27],−0.15
N[C@@H](CC(=O)N1CCn2c(nnc2C(F)(F)F)C1)Cc1cc(F)c(F)cc1F [Sitagliptin],Difference,[1]; [8],−0.08
same,Cholesterol-free,[1]; [9],0.9944
same,Complete,[1]; [10],0.9145
same,Cholesterol-free media + simvastatin (0.04 μM),[2]; [14],1.605
same,Complete Media,[2]; [15],1.493
same,Difference,[2]; [27],−0.11
C[C@]12CCC(=O)C=C1CC[C@@H]1[C@@H]2[C@@H](O)C[C@@]2(C)[C@H]1CC[C@]2(O)C(=O)CO [Hydrocortisone],Cholesterol-free,[1]; [21],0.8914
same,Complete,[1]; [22],1.03
same,Difference,[1]; [28],0.14
same,Cholesterol-free media + simvastatin (0.04 μM),[2]; [11],0.4287
same,Complete Media,[2]; [12],0.4959
same,Difference,[2]; [13],0.07
COc1nc(N)nc2c1ncn2[C@@H]1O[C@H](CO)[C@@H](O)[C@@H]1O [Nelarabine],Difference,[1]; [29],−0.59
same,Cholesterol-free,[1]; [16],1.291
same,Complete,[1]; [17],0.7049
same,Cholesterol-free media + simvastatin (0.04 μM),[2]; [5],0.8366
same,Complete Media,[2]; [6],0.8526
same,Difference,[2]; [26],0.02
COc1cc2c(cc1OC)[C@@H]1Cc3ccc(OC)c(OC)c3CN1CC2 [Tetrahydropalmatine],Difference,[1]; [8],−0.19
same,Cholesterol-free,[1]; [9],1.084
same,Complete,[1]; [10],0.8984
same,Cholesterol-free media + simvastatin (0.04 μM),[2]; [23],0.9937
same,Complete Media,[2]; drug in complete media,0.7686
same,Difference,[2]; [27],−0.23
CNC(=O)c1cnn(-c2nc(N)c3ncn([C@@H]4O[C@H](CO)[C@@H](O)[C@H]4O)c3n2)c1 [Regadenoson],Difference,[1]; [3],−0.21
same,Cholesterol-free,[1]; [4],1.426
same,Complete,"[1]; NCI-H292 cells, complete media",1.216
same,Cholesterol-free media + simvastatin (0.04 μM),[2]; [18],1.362
same,Complete Media,[2]; [19],1.055
same,Difference,[2]; [20],−0.31
Cc1ccccc1C(=O)Nc1ccc(C(=O)N2CCCC(N(C)C)c3ccccc32)cc1 (stereo not drawn) [Mozavaptan],Difference,[1]; [25],−0.20
same,Cholesterol-free,[1]; [4],0.8282
same,Complete,"[1]; NCI-H292 cells, complete media",0.6332
same,Cholesterol-free media + simvastatin (0.04 μM),[2]; [18],1.121
same,Complete Media,[2]; [19],0.8375
same,Difference,[2]; [27],−0.28
CC1CCCC(C)N1CCCC(O)(c1ccccc1)c1ccccn1 (stereo not drawn) [Pirmenol (hydrochloride)],Difference,[1]; [8],−0.15
same,Cholesterol-free,[1]; [9],0.8727
same,Complete,[1]; [10],0.7238
same,Cholesterol-free media + simvastatin (0.04 μM),[2]; [14],1.664
same,Complete Media,[2]; [15],1.547
same,Difference,[2]; [27],−0.12
O=C(CCCN1CCC(O)(c2ccc(Cl)cc2)CC1)c1ccc(F)cc1 [Haloperidol],Cholesterol-free,[1]; [21],0.4782
same,Complete,[1]; [22],0.7598
same,Difference,[1]; [28],0.28
same,Cholesterol-free media + simvastatin (0.04 μM),[2]; [11],0.8115
same,Complete Media,[2]; [12],0.843
same,Difference,[2]; [13],0.03
CC[N+](C)(CC)CCOC(=O)C(O)(c1ccccc1)c1ccccc1 [Methylbenactyzium Bromide],Difference,[1]; [3],0.02
same,Cholesterol-free,[1]; [21],0.9201
same,Complete,[1]; [22],0.945
same,Cholesterol-free media + simvastatin (0.04 μM),[2]; [18],1.651
same,Complete Media,[2]; [19],1.081
same,Difference,[2]; [20],−0.57
CCCCCCOC(=O)CCC(=O)CN [Hexaminolevulinate (hydrochloride)],Difference,[1]; [25],0.00
same,Cholesterol-free,[1]; [21],0.7384
same,Complete,[1]; [22],0.7376
same,Cholesterol-free media + simvastatin (0.04 μM),[2]; [23],1.074
same,Complete Media,[2]; drug in complete media,0.8971
same,Difference,[2]; [27],−0.18
Fluvoxamine (maleate),Difference,[1]; [8],−0.11
same,Cholesterol-free,[1]; [9],1.142
same,Cholesterol-free media + simvastatin (0.04 μM),[2]; [5],0.9929
same,Complete Media,[2]; [6],0.9426
same,Difference,[2]; [26],−0.05
CCOC(=O)/C=C(C)/C=C/C=C(C)/C=C/c1c(C)cc(OC)c(C)c1C [Etretinate],Difference,[1]; [3],−0.71
same,Cholesterol-free,[1]; [16],1.459
same,Complete,[1]; [17],0.7469
same,Cholesterol-free media + simvastatin (0.04 μM),[2]; [14],0.824
same,Complete Media,[2]; [15],1.055
same,Difference,[2]; [24],0.23
CCc1nn(CCCN2CCN(c3cccc(Cl)c3)CC2)c(=O)n1CCOc1ccccc1 [Nefazodone (hydrochloride)],Cholesterol-free,[1]; [21],0.8256
same,Complete,[1]; [22],1.655
same,Difference,[1]; [28],0.83
same,Cholesterol-free media + simvastatin (0.04 μM),[2]; [18],1.025
same,Complete Media,[2]; [19],0.2752
same,Difference,[2]; [27],−0.75
C[Se]CC[C@H](N)C(=O)O [L-SelenoMethionine],Difference,[1]; [29],−0.92
same,Cholesterol-free,[1]; [16],2.252
same,Complete,[1]; [17],1.327
same,Cholesterol-free media + simvastatin (0.04 μM),[2]; [14],1.886
same,Complete Media,[2]; [15],1.795
same,Difference,[2]; [27],−0.09
